The source made the active and inactive calls.
Columns and labels:
[1] = target: Tyrosine-protein phosphatase non-receptor type 5 (Homo sapiens, UniProt P54829); test: PTPN5 enzyme inhibition – biochemical, fluorescence intensity, uHTS hits, confirmation (AID 602372); assay type: functional; details: read-out: IC50_Mean
[2] = target: T1, DNA repair protein RAD52 homolog (Homo sapiens, UniProt P43351); assay type: functional, biochemical
T1 sequence (P43351 whole entry): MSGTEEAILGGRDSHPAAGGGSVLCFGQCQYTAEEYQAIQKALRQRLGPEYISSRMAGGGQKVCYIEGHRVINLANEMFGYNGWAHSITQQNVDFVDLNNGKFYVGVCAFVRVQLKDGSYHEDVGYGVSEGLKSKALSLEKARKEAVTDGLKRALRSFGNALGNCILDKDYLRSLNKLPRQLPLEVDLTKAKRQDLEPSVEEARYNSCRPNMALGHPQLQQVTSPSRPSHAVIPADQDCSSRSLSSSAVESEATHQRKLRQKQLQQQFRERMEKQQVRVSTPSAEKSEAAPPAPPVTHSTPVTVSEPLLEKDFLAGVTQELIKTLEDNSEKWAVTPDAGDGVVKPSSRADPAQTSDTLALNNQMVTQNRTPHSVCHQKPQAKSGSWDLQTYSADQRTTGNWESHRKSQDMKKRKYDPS

[3] = target: T2, Hexokinase HKDC1 (Homo sapiens, UniProt Q2TB90); test: inhibition of HKDC1 glucose phosphorylation – biochemical, W721R variant, dose response (AID 504729); assay type: functional
T2 sequence (Q2TB90 whole entry): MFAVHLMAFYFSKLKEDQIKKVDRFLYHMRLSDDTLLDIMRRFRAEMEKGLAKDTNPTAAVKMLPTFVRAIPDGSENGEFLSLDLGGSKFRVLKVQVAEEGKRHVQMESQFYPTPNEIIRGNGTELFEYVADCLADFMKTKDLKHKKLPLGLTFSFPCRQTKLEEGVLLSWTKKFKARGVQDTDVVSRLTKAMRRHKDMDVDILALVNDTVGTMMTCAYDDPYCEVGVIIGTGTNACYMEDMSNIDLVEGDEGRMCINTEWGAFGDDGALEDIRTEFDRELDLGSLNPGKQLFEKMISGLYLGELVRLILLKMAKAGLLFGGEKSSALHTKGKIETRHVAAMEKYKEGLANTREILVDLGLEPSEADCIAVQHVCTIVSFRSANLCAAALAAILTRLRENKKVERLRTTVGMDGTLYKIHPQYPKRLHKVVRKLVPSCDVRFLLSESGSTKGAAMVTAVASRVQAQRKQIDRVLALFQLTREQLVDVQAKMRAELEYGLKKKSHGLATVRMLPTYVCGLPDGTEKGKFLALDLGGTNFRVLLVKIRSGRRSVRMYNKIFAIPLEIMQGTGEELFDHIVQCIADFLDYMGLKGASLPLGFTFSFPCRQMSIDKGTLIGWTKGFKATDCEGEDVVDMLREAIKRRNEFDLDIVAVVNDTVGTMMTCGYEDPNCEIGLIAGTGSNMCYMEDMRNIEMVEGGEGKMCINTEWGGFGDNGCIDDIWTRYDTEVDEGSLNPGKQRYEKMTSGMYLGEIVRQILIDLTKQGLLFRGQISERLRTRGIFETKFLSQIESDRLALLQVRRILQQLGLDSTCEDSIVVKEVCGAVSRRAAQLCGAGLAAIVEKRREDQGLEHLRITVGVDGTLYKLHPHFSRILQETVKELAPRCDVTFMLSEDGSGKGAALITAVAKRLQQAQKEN

[4] = target: Tyrosine-protein phosphatase non-receptor type 11 (Homo sapiens, UniProt Q06124); test: PTPN11 enzyme inhibitors – biochemical, selectivity assay for STEP inhibitor project, dose response (AID 602367); assay type: functional; details: read-out: IC50_Mean
[5] = target: Eukaryotic translation initiation factor 4E (Mus musculus, UniProt P63073); test: blockers of eIF4G binding by eIF4E – biochemical, TR-FRET, dose response (AID 855); assay type: functional;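 further: potency for disrupting eIF4E binding to eIF4GI seen as loss of FRET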
Sequence of Eukaryotic translation initiation factor 4E (P63073 whole entry): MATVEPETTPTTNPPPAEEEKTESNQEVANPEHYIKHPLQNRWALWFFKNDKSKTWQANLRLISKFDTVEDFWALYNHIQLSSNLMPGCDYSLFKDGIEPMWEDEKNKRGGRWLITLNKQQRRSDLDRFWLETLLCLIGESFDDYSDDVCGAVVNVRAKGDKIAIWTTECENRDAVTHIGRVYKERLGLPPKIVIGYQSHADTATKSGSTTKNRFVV

[6] = target: T3, Histone-lysine N-methyltransferase NSD2 (Homo sapiens, UniProt O96028); assay type: biochemical
T3 sequence (O96028 whole entry): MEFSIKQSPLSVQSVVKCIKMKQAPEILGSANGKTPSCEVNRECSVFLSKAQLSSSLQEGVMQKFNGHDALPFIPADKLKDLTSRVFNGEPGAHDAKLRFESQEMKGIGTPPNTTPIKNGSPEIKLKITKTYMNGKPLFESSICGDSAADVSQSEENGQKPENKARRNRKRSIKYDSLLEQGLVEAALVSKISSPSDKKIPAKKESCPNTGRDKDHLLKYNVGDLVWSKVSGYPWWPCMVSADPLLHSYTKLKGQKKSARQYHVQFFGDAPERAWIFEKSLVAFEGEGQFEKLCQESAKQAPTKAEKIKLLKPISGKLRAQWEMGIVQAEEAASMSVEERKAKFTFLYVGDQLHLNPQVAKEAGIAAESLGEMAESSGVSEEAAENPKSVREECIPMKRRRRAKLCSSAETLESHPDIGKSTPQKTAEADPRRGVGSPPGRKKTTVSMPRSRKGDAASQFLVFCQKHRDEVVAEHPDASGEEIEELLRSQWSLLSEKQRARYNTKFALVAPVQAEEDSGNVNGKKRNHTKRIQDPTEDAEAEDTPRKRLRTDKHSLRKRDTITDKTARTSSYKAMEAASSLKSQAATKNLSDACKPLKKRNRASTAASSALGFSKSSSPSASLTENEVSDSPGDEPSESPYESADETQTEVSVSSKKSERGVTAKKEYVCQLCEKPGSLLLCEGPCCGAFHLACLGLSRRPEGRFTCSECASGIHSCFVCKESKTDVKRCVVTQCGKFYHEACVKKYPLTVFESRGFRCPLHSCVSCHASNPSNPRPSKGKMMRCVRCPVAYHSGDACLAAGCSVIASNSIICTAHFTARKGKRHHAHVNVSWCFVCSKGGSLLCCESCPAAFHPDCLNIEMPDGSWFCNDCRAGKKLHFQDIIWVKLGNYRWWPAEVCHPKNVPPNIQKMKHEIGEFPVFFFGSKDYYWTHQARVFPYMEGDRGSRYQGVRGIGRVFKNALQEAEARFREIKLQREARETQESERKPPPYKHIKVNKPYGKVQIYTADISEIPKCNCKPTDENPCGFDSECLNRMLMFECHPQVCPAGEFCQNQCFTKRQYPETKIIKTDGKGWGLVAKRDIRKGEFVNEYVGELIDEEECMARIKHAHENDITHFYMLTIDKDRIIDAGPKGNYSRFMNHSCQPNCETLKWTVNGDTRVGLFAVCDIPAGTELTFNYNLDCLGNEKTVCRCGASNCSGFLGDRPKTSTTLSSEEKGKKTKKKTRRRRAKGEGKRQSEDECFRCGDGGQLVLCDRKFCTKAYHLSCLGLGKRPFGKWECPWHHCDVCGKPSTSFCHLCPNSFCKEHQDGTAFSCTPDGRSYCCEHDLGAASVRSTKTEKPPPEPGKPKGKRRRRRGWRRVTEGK

[7] = target: Dual specificity protein phosphatase 3 (Homo sapiens, UniProt P51452); test: VHR phosphatase inhibition, dose response, selectivity assay for STEP inhibitor project, biochemical (AID 602374); assay type: functional; details: read-out: IC50_Mean
[8] = target: Eukaryotic translation initiation factor 4H (Homo sapiens, UniProt Q15056); test: inhibitors of translation initiation factor eIF4H – SAR follow-up (AID 435011); assay type: functional
[9] = target: Polyadenylate-binding protein 1 (Homo sapiens, UniProt P11940); test: PABP inhibition in translation initiation, SAR follow-up (AID 435018); assay type: functional
[10] = target: DNA dC->dU-editing enzyme APOBEC-3G (Homo sapiens, UniProt Q9HC16); test: Dose Response confirmation of small molecule APOBEC3G DNA Deaminase Inhibitors via a fluorescence-based single-stranded DNA deaminase assay. [Related pubchem assays (depositor defined):AID493012, AID493028]; assay type: functional
[11] = target: Nucleotide-binding oligomerization domain-containing protein 1 (Homo sapiens, UniProt Q9Y239); test: blockers of NOD1 pathway activity – revised, SAR follow-up (AID 2333); assay type: functional
Sequence of Nucleotide-binding oligomerization domain-containing protein 1 (Q9Y239 whole entry, the tested form may be a part): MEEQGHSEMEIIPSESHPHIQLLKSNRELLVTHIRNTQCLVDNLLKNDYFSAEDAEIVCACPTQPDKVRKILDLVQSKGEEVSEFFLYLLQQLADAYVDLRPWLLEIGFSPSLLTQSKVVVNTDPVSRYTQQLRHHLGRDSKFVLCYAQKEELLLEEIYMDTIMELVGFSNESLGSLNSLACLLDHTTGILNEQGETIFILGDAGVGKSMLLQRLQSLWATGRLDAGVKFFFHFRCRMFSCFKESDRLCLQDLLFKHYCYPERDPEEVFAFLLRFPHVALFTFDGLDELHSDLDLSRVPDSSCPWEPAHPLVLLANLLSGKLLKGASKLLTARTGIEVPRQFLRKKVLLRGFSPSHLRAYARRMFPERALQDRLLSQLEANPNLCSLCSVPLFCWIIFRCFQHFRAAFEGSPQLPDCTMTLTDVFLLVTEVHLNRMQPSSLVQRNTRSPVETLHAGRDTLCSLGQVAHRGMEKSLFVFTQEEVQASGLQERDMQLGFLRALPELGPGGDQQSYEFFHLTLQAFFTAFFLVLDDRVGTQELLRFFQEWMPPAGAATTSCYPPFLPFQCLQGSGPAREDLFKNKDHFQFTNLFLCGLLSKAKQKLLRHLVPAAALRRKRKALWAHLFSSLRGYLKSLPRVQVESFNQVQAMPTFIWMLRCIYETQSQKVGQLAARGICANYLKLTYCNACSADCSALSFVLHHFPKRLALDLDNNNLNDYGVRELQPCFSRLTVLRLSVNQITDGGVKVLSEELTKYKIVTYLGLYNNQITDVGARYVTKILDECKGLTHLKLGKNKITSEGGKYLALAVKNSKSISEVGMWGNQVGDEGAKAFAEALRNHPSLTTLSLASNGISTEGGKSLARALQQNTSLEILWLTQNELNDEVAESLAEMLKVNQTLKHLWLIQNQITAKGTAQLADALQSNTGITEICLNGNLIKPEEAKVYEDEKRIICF

[12] = target: Tumor necrosis factor (Homo sapiens, UniProt P01375); test: analog potency on TNFa NF-kB signaling – cell-based, revised, SAR follow-up (AID 2337); assay type: functional
Sequence of Tumor necrosis factor (P01375 whole entry): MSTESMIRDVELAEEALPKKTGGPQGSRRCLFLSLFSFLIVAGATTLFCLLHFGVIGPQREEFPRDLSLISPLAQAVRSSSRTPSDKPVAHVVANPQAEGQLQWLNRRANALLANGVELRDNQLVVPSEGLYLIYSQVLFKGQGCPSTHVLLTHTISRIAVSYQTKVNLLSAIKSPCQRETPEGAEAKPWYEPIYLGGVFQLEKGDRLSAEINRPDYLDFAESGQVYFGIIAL

[13] = target: T4, Heat shock factor protein 1 (Mus musculus, UniProt P38532); test: decrease of HSF1-responsive luciferase luminescence – cell-based, NIH3T3, dose retest, confirmation (AID 2382); assay type: functional;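 further: NIH3T3 fibroblasts with HSF1-driven luciferase reporter stressed by proteasome inhibitor MG132; luminescence from HSF1-driven luciferase expression after 8 hours of MG132 stress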
T4 sequence (P38532 whole entry): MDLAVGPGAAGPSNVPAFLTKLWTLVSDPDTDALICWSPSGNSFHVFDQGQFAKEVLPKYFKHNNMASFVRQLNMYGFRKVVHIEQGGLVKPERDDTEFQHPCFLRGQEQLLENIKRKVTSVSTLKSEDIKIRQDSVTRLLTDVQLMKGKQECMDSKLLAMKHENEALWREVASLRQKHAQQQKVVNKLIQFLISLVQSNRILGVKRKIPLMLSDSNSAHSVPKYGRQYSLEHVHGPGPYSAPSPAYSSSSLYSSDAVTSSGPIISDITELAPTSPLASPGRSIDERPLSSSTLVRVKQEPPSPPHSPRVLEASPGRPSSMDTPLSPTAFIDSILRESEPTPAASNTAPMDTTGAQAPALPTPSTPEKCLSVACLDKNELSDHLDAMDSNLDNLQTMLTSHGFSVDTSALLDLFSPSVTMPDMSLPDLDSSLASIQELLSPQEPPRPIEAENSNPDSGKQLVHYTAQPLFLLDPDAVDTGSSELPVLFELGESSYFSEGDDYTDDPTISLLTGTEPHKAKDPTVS

[14] = target: Luciferin 4-monooxygenase (Photinus pyralis, UniProt P08659); test: inhibition of purified Photinus pyralis luciferase – biochemical, luminescence, dose response (AID 1891)
[15] = Luminescence Cell-Based Dose Retest to Confirm Inhibitors of Cancer Stem Cells. [Related pubchem assays (depositor defined):AID2717, AID2721]; assay type: functional; details: Homo sapiens
[16] = Fluorescence-based cell-based high throughput dose response assay for inhibitors of the interaction of nucleotide-binding oligomerization domain containing 2 (NOD2) and the receptor-interacting serine-threonine kinase 2 (RIPK2).; assay type: functional; details: Homo sapiens
[17] = target: Neurotensin receptor type 1 (Homo sapiens, UniProt P30989); assay type: functional;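 further: Image-based confirmatory dose-response assay measuring agonist activity at NTR1; NTR1-expressing U2OS osteosarcoma cells imaged for beta-arrestin GFP spot formation; agonist potency where compounds increase beta-arrestin recruitment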
Sequence of Neurotensin receptor type 1 (P30989 whole entry): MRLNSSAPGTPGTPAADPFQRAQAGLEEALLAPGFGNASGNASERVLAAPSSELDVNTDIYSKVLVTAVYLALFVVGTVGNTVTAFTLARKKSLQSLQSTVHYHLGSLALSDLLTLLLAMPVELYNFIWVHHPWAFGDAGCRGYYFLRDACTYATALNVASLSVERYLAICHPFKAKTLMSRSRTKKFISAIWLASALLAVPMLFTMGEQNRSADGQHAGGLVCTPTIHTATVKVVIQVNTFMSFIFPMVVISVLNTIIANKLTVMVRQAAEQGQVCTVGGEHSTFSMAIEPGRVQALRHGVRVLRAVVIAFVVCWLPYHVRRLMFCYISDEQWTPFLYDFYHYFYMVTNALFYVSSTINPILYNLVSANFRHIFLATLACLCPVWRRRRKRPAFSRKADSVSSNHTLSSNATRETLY

[18] = Trypanosoma cruzi growth suppression in host cells – NIH3T3 host cells, beta-gal luminescence, confirmation (AID 2044); assay type: functional, cell-based;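 further: intracellular parasites grown in NIH/3T3 mouse fibroblasts as host cells; luminescent beta-galactosidase reporter signal from transgenic T. cruzi replicating inside host cells; inhibitors lower the luminescence signal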
[19] = NIH3T3 cell viability loss – ATP luminescence, mouse fibroblasts, counter-screen, dose response (AID 2010); assay type: functional, cell-based;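 further: cells exposed to compound for about 90 hours before reading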
[20] = HEK-293T viability loss after treatment – luminescence, T-cell screen hits, cytotoxicity control for TCR NF-kB inhibitor project, dose response (AID 489026); assay type: functional, cell-based;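 further: cells exposed to compound about 14 hours before the viability readout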
[21] = cells
[22] = alpha-synuclein stem-loop luciferase translation blockers – H4 neuroglioma cells, luminescence, confirmation (AID 1988); assay type: functional, cell-based
[23] = luciferase reporter signal suppression in cells – H4 neuroglioma cells, luminescence, dose response (AID 1990); assay type: functional, cell-based
[24] = NIH-3T3 fibroblast cytotoxicity, dose response, cytotoxicity control, cell-based, fluorescence, Alamar Blue, secondary assay (AID 2327); assay type: functional;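 further: NIH-3T3 mouse fibroblasts cultured with fluconazole at 8 µg/mL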
[25] = target: T5, Calpain-2 catalytic subunit (Sus scrofa, UniProt P43367); test: m-calpain protease blockers, concentration series – biochemical, fluorogenic peptide substrate, dose response (AID 1420); assay type: functional
T5 sequence (P43367 whole entry): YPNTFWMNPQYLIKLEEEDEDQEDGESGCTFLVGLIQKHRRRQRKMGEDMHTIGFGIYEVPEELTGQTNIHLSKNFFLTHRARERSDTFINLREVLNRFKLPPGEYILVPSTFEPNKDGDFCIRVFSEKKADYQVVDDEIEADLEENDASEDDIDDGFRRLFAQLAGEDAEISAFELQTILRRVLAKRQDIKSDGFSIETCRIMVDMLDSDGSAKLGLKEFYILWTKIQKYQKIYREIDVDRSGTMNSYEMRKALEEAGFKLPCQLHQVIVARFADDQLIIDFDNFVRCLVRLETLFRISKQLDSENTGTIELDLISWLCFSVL

[26] = Luminescence Cell-Based Dose Response HTS to Identify Inhibitors of 5'UTR Stem-Loop Driven Prion Protein mRNA Translation in H4 Neuroglioblastoma Cells. [Related pubchem assays: 1827 (Project Summary), 1813 (Primary HTS)]; assay type: functional
[27] = test system: HEK293; test: cells; details: Homo sapiens;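 further: cells exposed to compound for 14 hours overnight before viability readout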
[28] = target: T6, Voltage-gated N-type calcium channel alpha-1B subunit/Amyloid beta A4 precursor protein-binding family A member 1 (Homo sapiens, UniProt Q00975+Q02410); test: disruptors of Mint-PDZ/N-type channel peptide interaction – biochemical, HTRF, SAR follow-up (AID 2489); assay type: functional
T6 sequence (Q00975 whole entry): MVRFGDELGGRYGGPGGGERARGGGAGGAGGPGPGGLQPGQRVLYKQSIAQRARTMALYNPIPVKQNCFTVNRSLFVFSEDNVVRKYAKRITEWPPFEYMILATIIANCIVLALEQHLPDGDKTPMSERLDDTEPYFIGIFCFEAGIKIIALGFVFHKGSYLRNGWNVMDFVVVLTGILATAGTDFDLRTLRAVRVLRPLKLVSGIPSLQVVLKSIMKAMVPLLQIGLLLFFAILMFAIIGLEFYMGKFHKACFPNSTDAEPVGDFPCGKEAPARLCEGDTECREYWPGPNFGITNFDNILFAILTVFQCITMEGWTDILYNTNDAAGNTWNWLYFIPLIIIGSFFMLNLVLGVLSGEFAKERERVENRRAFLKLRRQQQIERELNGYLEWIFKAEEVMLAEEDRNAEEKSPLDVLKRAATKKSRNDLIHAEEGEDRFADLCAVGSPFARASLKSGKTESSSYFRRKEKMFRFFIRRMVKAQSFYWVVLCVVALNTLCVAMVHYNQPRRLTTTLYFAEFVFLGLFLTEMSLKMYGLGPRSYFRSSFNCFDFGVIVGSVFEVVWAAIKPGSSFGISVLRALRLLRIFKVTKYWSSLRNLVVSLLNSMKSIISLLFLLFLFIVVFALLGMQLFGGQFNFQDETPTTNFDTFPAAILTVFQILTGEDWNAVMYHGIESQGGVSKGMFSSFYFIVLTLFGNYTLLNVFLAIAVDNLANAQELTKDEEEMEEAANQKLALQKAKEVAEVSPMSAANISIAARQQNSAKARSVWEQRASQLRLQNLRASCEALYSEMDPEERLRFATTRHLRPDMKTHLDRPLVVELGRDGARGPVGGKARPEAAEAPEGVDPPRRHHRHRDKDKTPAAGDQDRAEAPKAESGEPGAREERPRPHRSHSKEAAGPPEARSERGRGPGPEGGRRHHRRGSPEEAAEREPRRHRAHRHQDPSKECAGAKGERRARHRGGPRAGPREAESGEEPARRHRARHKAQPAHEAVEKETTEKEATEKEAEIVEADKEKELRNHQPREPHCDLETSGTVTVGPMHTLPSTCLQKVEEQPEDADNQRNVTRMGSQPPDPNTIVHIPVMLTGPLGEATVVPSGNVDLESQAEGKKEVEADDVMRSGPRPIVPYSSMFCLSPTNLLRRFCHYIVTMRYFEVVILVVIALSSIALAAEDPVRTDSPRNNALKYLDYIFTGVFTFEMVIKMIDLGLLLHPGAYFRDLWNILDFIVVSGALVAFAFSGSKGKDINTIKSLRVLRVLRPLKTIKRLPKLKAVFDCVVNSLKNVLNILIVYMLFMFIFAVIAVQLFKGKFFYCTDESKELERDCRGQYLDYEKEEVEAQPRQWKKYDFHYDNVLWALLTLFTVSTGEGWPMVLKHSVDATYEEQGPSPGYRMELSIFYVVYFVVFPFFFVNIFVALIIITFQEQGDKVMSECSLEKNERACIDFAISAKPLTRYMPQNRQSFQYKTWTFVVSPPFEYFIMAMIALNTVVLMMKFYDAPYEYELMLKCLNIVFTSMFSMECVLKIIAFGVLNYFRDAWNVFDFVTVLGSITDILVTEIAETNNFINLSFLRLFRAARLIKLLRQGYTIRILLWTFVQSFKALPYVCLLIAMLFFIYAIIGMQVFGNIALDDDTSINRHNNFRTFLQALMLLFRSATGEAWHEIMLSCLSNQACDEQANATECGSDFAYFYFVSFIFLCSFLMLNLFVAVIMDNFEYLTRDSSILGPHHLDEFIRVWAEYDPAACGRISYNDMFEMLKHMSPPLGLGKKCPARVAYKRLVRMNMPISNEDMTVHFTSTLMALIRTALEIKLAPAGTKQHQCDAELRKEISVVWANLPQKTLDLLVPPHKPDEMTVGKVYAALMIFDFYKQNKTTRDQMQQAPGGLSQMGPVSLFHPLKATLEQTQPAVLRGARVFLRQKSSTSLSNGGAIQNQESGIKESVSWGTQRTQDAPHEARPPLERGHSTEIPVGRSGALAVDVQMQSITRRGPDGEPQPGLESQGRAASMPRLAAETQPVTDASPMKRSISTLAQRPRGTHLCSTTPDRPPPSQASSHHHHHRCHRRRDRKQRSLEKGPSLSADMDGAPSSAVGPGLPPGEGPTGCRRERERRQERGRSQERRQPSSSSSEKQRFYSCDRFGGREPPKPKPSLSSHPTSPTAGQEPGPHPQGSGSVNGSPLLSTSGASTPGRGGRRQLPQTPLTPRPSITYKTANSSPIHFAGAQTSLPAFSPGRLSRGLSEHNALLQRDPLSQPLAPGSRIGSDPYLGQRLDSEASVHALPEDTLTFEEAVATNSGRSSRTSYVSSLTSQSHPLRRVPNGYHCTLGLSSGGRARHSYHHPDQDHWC
T6 sequence (Q02410 whole entry): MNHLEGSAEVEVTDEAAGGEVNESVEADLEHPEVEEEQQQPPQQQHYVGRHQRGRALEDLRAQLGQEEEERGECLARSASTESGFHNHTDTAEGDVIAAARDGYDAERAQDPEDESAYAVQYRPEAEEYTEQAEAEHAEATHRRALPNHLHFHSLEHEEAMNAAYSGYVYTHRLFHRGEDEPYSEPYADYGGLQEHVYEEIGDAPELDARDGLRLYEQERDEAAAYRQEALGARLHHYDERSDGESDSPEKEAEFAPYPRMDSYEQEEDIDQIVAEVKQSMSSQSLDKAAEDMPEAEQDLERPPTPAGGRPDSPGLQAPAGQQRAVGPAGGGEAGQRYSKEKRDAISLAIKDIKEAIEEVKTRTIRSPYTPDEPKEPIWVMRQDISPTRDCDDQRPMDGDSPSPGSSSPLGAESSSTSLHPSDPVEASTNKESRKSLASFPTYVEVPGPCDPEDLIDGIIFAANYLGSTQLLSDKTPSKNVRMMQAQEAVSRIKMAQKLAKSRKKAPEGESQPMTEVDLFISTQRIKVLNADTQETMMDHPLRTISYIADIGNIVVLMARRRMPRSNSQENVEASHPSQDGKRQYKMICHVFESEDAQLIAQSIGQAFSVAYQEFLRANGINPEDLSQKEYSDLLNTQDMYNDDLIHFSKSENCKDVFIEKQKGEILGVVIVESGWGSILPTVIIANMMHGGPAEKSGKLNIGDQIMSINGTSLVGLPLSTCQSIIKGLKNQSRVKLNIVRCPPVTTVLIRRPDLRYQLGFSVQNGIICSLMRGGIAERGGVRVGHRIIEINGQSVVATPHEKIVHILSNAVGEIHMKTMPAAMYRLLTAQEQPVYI

[29] = target: T6, Voltage-gated N-type calcium channel alpha-1B subunit/Amyloid beta A4 precursor protein-binding family A member 1; test: disruptors of Mint-PDZ/N-type channel peptide interaction – biochemical, HTRF, set 2, SAR follow-up (AID 434980); assay type: functional

N=C(NCc1ccc2c(c1)OCO2)NC(=O)c1ccccc1
IC50 [1]: > 80 µM (inactive)
AC50 [2]: 17.2 µM (active)
IC50 [3]: 25.8 µM (inactive)
IC50 [4]: 19 µM (active)
IC50 [5]: 17.3 µM (active)
AC50 [6]: 6.74 µM (active)
IC50 [7]: 24.1 µM (inactive)

CCOC(=O)Cc1c(Sc2ccccc2)c2ccccc2n1C
IC50 [8]: > 100 µM (inactive)
IC50 [9]: > 100 µM (inactive)

CCNc1nc(NCC)n2c(SCC(=O)Nc3ccc(CC)cc3)nnc2n1
IC50 [10]: 75.6 µM (active)

CC(C)(C)c1ccc(C(=O)ON=C(N)c2ccccc2)cc1
IC50 [11]: 2.84 µM (active)
IC50 [12]: 1.51 µM (active)
EC50 [13]: < 0.16 µM (active)
EC50 [14]: 5.63 µM (active)

COc1ccc(C(=O)/C=C2/C(=O)Nc3ccccc32)c(OC)c1
AC50 [15]: 5.87 µM (active)
IC50 [16]: 19.5 µM (inactive)
EC50 [17]: 24.2 µM (inactive)

CCCCCCCCCn1c2c(c(=N)c3c1CCC3)CCCC2
EC50 [18]: < 0.1 µM (active)
EC50 [19]: 3.44 µM (active)
IC50 [20]: 42.1 µM (inactive)
EC50 [21]: 0.011 µM (active)
EC50 [22]: 3.52 µM (active)
EC50 [23]: 6.69 µM (active)
EC50 [24]: 60.2 µM (active)
IC50 [25]: 4.68 µM (active)
EC50 [26]: 6.11 µM (active)
EC50 [17]: 6.65 µM (active)

CC(=O)N1c2ccc(S(=O)(=O)N3CCN(c4ccccc4)CC3)cc2CC1C (configuration not stated)
IC50 [11]: 11.1 µM (active)
IC50 [27]: > 20 µM (inactive)
IC50 [12]: 14.1 µM (active)

O=C(c1cc(-c2ccco2)nc2ccccc12)N1CCC(c2ccccc2)C1 (configuration not stated)
IC50 [28]: > 56.8 µM (inactive)
IC50 [29]: 13.6 µM (active)
